The results in this text go back to patent publication EP1614683B1, “Indazole compounds and pharmaceutical compositions for inhibiting protein kinases, and methods for their use” (priority 1999, dated 2001).

One data set addresses LCK tyrosine kinase (Homo sapiens, UniProt P06239, C224D/P223M). Put plainly: LCK spectrophotometric assay. It is filed as biochemical. As to conditions: Table 1; compound concentration 1 µM; read-out: Lck-P* (% inhibition). The procedure:
The spectrophotometric assay was carried out as described above for VEGF-R2, except for the following changes in concentration: LCK = 60 nM, MgCl2 = 0 mM, poly(E4Y1) = 20 mM.

The next data set in a line: in vivo. As to conditions: mouse, plasma, pH 2.3.
The subject of data set [1] is human umbilical vein endothelial cells (HUVEC). The experiment in a line: HUVEC proliferation assay (VEGF-stimulated, MTT). The following applies: Homo sapiens, HUVEC, Table 1. The class given is cell-based.
The next data set deals with human FGF-R1 (Homo sapiens, UniProt P11362, C488A/C584S/L457V). Put plainly: FGF-R spectrophotometric assay. The class given is biochemical. The following applies: Table 1; compound concentration 1 µM; read-out: FGF-P* (% inhibition). The protocol:
The spectrophotometric assay was carried out as described above for VEGF-R2, except for the following changes in concentration: FGF-R = 50 nM, ATP = 2 mM, and poly(E4Y1) =15 mM.

Data set [2] concerns the target unphosphorylated VEGF-R2Δ50 (Homo sapiens, UniProt P35968, DEL940-989/E990V). Put plainly: biochemical. The following applies: read-out: FLVK ** (% inhibition).
A short description of the next data set: in vitro. The class given is in vitro ADME, human. The following applies: human liver microsomes, 5 µM test compound, 37 °C, 2 h. Put shortly:
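HLM diluted to 5 mg/mL in 100 mM KPO4, preincubated 10 min at 37 °C with NADPH-regenerating system. Compound (5 µM final) incubated at 37 °C in triplicate, sampled at 0 and 2 h into ice-cold acetonitrile, then LC-MS analysis.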

[3] abbreviates: PO, 25 mg/kg, vehicle PEG400:H2O pH 2.3 30:70.
Setting [4] is: + albumin, read-out: HUVEC + albumin IC50.
Where [5] appears, read: IP, 25 mg/kg, vehicle PEG400:H2O pH 2.3 30:70.
Setting [6] is: PO, 50 mg/kg, vehicle PEG400:H2O pH 2.3 30:70.

Like-named read-outs stand apart in the source and are kept apart here.

Sequence of LCK tyrosine kinase (P06239 223-509 P223M/C224D): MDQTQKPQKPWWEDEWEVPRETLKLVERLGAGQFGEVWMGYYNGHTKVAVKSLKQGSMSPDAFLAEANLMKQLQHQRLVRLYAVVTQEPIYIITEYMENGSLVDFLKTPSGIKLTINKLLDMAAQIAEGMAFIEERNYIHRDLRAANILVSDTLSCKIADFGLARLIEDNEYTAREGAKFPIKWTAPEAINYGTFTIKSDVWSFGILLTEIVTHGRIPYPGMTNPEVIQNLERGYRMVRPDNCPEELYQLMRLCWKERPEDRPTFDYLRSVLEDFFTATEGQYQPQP
Sequence of human FGF-R1 (P11362 456-766 L457V/C488A/C584S): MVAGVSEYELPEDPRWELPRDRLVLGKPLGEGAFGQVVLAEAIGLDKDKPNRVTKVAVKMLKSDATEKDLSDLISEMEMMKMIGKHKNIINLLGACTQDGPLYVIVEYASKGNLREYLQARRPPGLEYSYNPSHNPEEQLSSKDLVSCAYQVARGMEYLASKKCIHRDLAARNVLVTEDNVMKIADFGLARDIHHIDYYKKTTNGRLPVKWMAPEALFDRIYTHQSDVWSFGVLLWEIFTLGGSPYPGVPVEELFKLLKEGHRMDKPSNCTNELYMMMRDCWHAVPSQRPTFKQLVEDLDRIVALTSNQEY
Sequence of unphosphorylated VEGF-R2Δ50 (P35968 with tags, fused parts or gaps DEL940-989/E990V limits assumed): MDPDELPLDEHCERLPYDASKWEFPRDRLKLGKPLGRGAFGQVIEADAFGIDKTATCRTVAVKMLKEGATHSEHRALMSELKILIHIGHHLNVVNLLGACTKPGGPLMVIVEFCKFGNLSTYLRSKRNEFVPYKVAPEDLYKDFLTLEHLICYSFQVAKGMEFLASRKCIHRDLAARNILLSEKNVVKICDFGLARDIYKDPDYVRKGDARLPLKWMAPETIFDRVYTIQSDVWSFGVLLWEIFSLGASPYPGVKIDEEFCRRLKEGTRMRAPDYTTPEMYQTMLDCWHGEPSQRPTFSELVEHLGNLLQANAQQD

For the compound `CCn1nc(C)cc1C(=O)Nc1cccc(Oc2ccc3c(/C=C/c4c[nH]c(C)n4)n[nH]c3c2)c1` [Reference Example 32(c), 6-[3-((1-Ethyl-3-methyl-1H-pyrazol-5-yl)carboxamido)phenoxy]-3-E-[2-(2-methylimidazol-4-yl)ethenyl]-1H-indazole], the T1/2 under setting [3] stood at 2.4 h. For the same compound, the inhibition at 1 µM on LCK tyrosine kinase came out at 52%; on human FGF-R1, 96%. Besides, the AUC in the data set “in vivo” (po, 25 mg/kg) is 388 ng·h/mL. For the same compound, the concentration for half-maximal inhibition (IC50) in data set [1] (setting [4]) was above 30 nM.
The like results for `CCn1nc(C)cc1C(=O)Nc1cccc(Oc2ccc3c(/C=C/c4c[nH]cn4)n[nH]c3c2)c1` [Reference Example 32(b), 6-[3-((1-Ethyl-3-methyl-1H-pyrazol-5-yl)carboxamido)phenoxy]-3-E-[2-(1H-imidazol-4-yl)ethenyl]-1H-indazole] were, in that order, 2.1 h, 70%, 95%, 490 ng·h/mL and 21 nM.
In turn, `CCn1nc(C)cc1C(=O)Nc1cccc(Oc2ccc3c(/C=C/c4cn(C)c(C)n4)n[nH]c3c2)c1` [Reference Example 31(f), 6-[3-((1-Ethyl-3-methyl-1H-pyrazol-5-yl)carboxamido)phenoxy]-3-E-[2-(1,2-dimethyl-1H-imidazol-4-yl)ethenyl]-1H-indazole] gave a T1/2 under setting [3] of 2.6 h. In addition, the inhibition at 1 µM at LCK tyrosine kinase was found to be 62%; at human FGF-R1, 99%. Moreover, the AUC in “in vivo” (po, 25 mg/kg) is above 245000 ng·h/mL. For the same compound, in data set [1] (setting [4]), the IC50 is above 10 nM. Besides, in data set [2], the inhibition at 0.05 µM stood at 97%.
Compound `O=C(NNc1ccccn1)c1ccccc1Sc1ccc2c(/C=C/c3ccccn3)n[nH]c2c1` [35 (n)] gave a T1/2 under setting [3] of 1.4 h. Besides, the AUC in “in vivo” (po, 25 mg/kg) was found to be 4820 ng·h/mL.
As to `CN(O)C(=O)c1ccccc1Sc1ccc2c(/C=C/c3ccccn3)n[nH]c2c1` [35 (o)], under setting [3], the “Cmin (7 hr conc.)” value is 3 ng/mL and the T1/2 was determined as 1.0 h. The AUC in “in vivo” (po, 25 mg/kg) was 683 ng·h/mL.
Take `O=C(Nc1ccccc1)c1ccccc1Sc1ccc2c(/C=C/c3ccccn3)n[nH]c2c1` [Reference Example 33(c), 6-[2-(phenylcarbamoyl)phenylsulfanyl]-3-E-[2-(pyrldin-2-yl)ethenyl]-1H-indazole]: in “in vitro”, the “% remain (HLM, 2 h)” value is on record as 16%. Besides, the “Cmin (7 hr conc.)” value by setting is: under setting [5], 7 ng/mL; under setting [6], 5 ng/mL. The T1/2 is, setting by setting: under setting [5], 1.2 h; under setting [6], 3.0 h. The figures for the inhibition at 1 µM at LCK tyrosine kinase and on human FGF-R1 were 26% and 76%, respectively. The AUC is 697 ng·h/mL in the data set “in vivo” (ip, 25 mg/kg) and 183 ng·h/mL in “in vivo” (po, 50 mg/kg). In data set [1] (setting [4]), the IC50 was 6.6 nM.
Regarding `O=C(Nc1cccc(C(=O)c2ccc3c(/C=C/c4ccccc4)n[nH]c3c2)c1)c1ccncc1` [19(j), 6-[3-(pyridin-4-ylcarboxamido)benzoyl]-3-E-styryl-1H-indazole], the remaining at 2 h, 5 µM in the data set “in vitro” (read-out: % remain (HLM, 2 h)) came to 66%. The T1/2 runs as follows: (IP, 25 mg/kg, vehicle PEG400:H2O pH 2.3 60:40) 1.6 h; (PO, 50 mg/kg, vehicle PEG400:H2O pH 2.3 60:40) 1.2 h. In addition, the values for the inhibition at 1 µM on LCK tyrosine kinase and on human FGF-R1 were 23% and 44%, respectively. Moreover, the AUC in “in vivo” (ip, 25 mg/kg) was 23200 ng·h/mL; in “in vivo” (po, 50 mg/kg), 5890 ng·h/mL. Further, the IC50 in data set [1] (setting [4]) is 50 nM; in data set [1] (read-out: HUVEC IC50), 2.2 nM.
`O=C(c1cccc(NC(=O)c2ccc(Cl)s2)c1)c1ccc2c(/C=C/c3ccccn3)n[nH]c2c1` [Reference Example 41(o), 6-[3-((5-chlorothien-2-yl)carboxamido)benzoyl]-3-E-[2-(pyridin-2-yl)ethenyl]-1H-indazole]: in the data set “in vitro”, the “% remain (HLM, 2 h)” value amounted to 94%. Further, the inhibition at 1 µM on LCK tyrosine kinase turned out to be 77%; on human FGF-R1, 74%. The AUC in the data set “in vivo” (ip, 25 mg/kg) is above 33800 ng·h/mL. Also, the IC50 in data set [1] (setting [4]) worked out at 10 nM.
